# Test results reported in ChEMBL document CHEMBL5370603, “N-(2-Aminophenyl)-benzamide Inhibitors of Class I HDAC Enzymes with Antiproliferative and Antifibrotic Activity” (J Med Chem, 2023).
# Active and inactive are the calls of the source. The calls are words filed in the database; no cut-off is given here.
# How the values were obtained:
# [1] = biological target: T1, Protein deacetylase HDAC6 (Homo sapiens) (UniProt Q9UBN7); test: Inhibition of HDAC6 in human A549 cells assessed as increase in acetylated alpha-tubulin level at 5 uM incubated for 48 hrs by immunoblot analysis; type: cell-based
# T1 sequence (whole entry): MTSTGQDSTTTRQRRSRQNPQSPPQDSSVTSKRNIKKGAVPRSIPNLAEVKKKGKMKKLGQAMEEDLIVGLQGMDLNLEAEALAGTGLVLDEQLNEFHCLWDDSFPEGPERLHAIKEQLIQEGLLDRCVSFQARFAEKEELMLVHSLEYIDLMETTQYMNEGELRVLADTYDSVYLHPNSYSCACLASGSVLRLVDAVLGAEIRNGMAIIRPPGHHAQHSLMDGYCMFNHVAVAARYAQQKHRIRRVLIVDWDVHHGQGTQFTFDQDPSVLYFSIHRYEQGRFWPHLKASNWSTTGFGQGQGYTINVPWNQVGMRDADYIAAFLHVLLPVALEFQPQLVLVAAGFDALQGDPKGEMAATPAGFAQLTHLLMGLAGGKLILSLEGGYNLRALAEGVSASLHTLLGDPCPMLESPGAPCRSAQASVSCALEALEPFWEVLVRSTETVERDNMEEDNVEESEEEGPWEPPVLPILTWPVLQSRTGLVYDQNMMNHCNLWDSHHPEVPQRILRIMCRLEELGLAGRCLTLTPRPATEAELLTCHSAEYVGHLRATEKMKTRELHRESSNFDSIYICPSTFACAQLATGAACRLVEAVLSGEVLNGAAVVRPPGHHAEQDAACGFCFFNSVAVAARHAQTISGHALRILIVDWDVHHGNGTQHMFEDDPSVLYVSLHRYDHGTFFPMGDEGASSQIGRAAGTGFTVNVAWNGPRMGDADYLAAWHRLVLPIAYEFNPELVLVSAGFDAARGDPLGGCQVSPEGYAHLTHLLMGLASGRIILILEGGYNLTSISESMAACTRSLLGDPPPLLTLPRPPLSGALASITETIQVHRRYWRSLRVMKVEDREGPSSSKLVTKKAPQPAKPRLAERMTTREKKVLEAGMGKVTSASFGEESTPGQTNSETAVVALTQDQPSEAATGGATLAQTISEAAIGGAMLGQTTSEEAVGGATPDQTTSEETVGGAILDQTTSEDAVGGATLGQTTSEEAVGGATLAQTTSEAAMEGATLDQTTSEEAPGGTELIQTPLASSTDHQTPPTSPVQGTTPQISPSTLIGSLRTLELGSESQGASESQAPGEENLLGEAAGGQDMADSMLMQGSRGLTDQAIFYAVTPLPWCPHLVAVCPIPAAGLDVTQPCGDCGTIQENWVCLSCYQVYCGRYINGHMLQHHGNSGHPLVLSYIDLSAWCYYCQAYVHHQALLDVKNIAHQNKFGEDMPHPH
# [2] = system: Mus musculus; test: Anti-fibrotic activity against BLM-induced pulmonary fibrosis C57BL/6 mouse model assessed as reduction in pulmonary inflammation by measuring decrease in cell number infiltration in BALF at 30 mg/kg, ip bid for 15 days starting from 1 day before BLM challenge by hematocytometer analysis; type: functional, organism-based; details: time 15.0 day
# [3] = system: SF-268; test: Antiproliferative activity against human SF-268 cells assessed as inhibition of cell growth incubated for 72 hrs by MTT assay; type: functional, cell-based; details: SF-268, 72 h
# [4] = system: Fibroblast; test: Anti-fibrotic activity in human primary lung fibroblast assessed as inhibition of TGFbeta1-induced COL1A1 mRNA expression at 5 to 10 uM pretreated for 1 hr followed by TGFbeta1 stimulation and measured after 24 hrs by qRT-PCR analysis; type: functional, cell-based; details: dose 5-10 µM, time 25.0 hrs
# [5] = biological target: Histone deacetylase 1 (Homo sapiens, UniProt Q13547); test: Inhibition of human recombinant HDAC1 using Ac-Leu-Gly-Lys(Ac)-AMC as substrate preincubated with enzyme for 30 mins followed by substrate addition and measured after 90 mins by fluorescence based analysis
# Histone deacetylase 1, sequence (Q13547 whole entry): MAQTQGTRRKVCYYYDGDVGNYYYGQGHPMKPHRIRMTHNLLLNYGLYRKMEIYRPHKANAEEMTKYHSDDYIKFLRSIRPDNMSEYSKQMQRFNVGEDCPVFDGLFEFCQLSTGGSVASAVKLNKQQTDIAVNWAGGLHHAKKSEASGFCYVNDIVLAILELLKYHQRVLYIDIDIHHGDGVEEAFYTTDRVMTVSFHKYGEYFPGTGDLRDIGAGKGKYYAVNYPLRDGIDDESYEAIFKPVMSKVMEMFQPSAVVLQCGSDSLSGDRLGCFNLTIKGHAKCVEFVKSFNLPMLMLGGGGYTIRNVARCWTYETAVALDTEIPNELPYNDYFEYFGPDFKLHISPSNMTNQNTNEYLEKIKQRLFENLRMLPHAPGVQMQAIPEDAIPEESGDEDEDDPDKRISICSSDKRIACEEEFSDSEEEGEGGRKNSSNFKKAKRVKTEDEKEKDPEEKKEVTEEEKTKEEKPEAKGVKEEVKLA
# [6] = system: A549; test: Antiproliferative activity against human A549 cells assessed as inhibition of cell growth incubated for 72 hrs by MTT assay; type: functional, cell-based; details: A549, 72 h
# [7] = biological target: T2, Protein deacetylase HDAC6 (Homo sapiens, UniProt Q9UBN7); test: Inhibition of C-terminal FLAG-tagged human recombinant full length HDAC6 expressed in baculovirus expression system using Boc-Lys(Ac)-AMC as substrate preincubated with enzyme for 15 mins followed by substrate addition and measured after 60 mins by fluorescence based analysis
# T2 sequence (Q9UBN7 whole entry): T1 sequence (whole entry)
# [8] = system: Mus musculus; test: Anti-fibrotic activity against BLM-induced pulmonary fibrosis C57BL/6 mouse model assessed as reduction in collagen deposition in lungs at 30 mg/kg, ip bid for 15 days starting from 1 day before BLM challenge by Sirius Red staining based analysis; type: functional, organism-based; details: time 15.0 day
# [9] = biological target: T3, Histone deacetylase 8 (Homo sapiens, UniProt Q9BY41); test: Inhibition of C-terminal His-tagged human recombinant full length HDAC8 (1 to 377 residues) expressed in Sf9 cells using Ac-Leu-Gly-Lys(trifluoroAc)-AMC as substrate preincubated with enzyme for 30 mins followed by substrate addition and measured after 90 mins by fluorescence based analysis
# T3 sequence (Q9BY41 whole entry): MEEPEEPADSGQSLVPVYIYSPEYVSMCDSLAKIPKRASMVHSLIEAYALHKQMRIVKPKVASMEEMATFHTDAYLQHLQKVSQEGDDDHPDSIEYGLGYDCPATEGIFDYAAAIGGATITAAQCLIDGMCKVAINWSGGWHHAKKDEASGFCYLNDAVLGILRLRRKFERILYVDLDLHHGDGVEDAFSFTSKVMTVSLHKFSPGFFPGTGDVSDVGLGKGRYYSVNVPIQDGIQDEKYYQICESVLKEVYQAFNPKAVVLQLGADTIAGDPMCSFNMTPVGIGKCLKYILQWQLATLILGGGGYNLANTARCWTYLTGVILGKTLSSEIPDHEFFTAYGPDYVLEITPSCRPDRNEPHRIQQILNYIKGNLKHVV
# [10] = biological target: T4, Class 1 histone deacetylase (Homo sapiens) (UniProt Q13547+O15379+Q92769+Q9BY41); test: Inhibition of class I HDAC in human A549 cells assessed as increase in histone H3 acetylation at 5 uM incubated for 48 hrs by immunoblot analysis; type: cell-based
# [11] = system: Mus musculus; test: Anti-fibrotic activity against BLM-induced pulmonary fibrosis C57BL/6 mouse model assessed as reduction in fibrotic masses in lungs at 30 mg/kg, ip bid for 15 days starting from 1 day before BLM challenge by Hematoxylin-Eosin staining based analysis; type: functional, organism-based; details: time 15.0 day
# [12] = biological target: Histone deacetylase 3 (Homo sapiens, UniProt O15379); test: Inhibition of human recombinant HDAC3 using Ac-Leu-Gly-Lys(Ac)-AMC as substrate preincubated with enzyme for 30 mins followed by substrate addition and measured after 90 mins by fluorescence based analysis
# Histone deacetylase 3, sequence (O15379 whole entry): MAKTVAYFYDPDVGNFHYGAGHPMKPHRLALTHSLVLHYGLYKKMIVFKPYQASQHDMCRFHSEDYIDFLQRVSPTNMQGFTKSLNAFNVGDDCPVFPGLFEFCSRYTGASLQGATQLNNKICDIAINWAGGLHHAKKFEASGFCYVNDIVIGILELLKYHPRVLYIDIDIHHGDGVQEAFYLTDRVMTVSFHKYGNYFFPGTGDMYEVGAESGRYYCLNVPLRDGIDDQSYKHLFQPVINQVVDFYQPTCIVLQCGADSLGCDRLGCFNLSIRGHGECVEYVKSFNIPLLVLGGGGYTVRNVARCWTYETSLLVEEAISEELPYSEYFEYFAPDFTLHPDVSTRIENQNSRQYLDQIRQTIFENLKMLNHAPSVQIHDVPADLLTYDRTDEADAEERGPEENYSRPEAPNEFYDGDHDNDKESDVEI
# [13] = system: Mus musculus; test: Anti-fibrotic activity against BLM-induced pulmonary fibrosis C57BL/6 mouse model assessed as reduction in pulmonary edema by measuring decrease in total protein concentration in BALF at 30 mg/kg, ip bid for 15 days starting from 1 day before BLM challenge by Bradford assay; type: functional, organism-based; details: time 15.0 day
# [14] = biological target: T4, Class 1 histone deacetylase (Homo sapiens); test: Inhibition of class I HDAC in human A549 cells assessed as downregulation of EGFR protein expression at 5 uM incubated for 48 hrs by western blot analysis; type: cell-based
# [15] = Toxicity against human primary lung fibroblasts assessed as effect on cell viability upto 20 uM incubated for 72 hrs by MTT assay; type: cell-based; details: fibroblast
# [16] = system: Mus musculus; test: Anti-fibrotic activity against BLM-induced pulmonary fibrosis C57BL/6 mouse model assessed as reduction in Col1a1 gene expression in lungs at 30 mg/kg, ip bid for 15 days starting from 1 day before BLM challenge by qRT-PCR analysis; type: functional, organism-based; details: time 15.0 day
# [17] = system: Mus musculus; test: Anti-fibrotic activity against BLM-induced pulmonary fibrosis C57BL/6 mouse model assessed as reduction in soluble collagen protein level in BALF at 30 mg/kg, ip bid for 15 days starting from 1 day before BLM challenge by Direct Red assay; type: functional, organism-based; details: time 15.0 day
# [18] = biological target: Histone deacetylase 4 (Homo sapiens, UniProt P56524); test: Inhibition of N-terminal GST-tagged/C-terminal His tagged human recombinant HDAC4 (627 to 1084 residues) expressed in baculovirus-infected Sf9 cells using Ac-Leu-Gly-Lys(trifluoroAc)-AMC as substrate preincubated with enzyme for 15 mins followed by substrate addition and measured after 60 mins by fluorescence based analysis
# Histone deacetylase 4, sequence (P56524 whole entry, the tested form may be a part): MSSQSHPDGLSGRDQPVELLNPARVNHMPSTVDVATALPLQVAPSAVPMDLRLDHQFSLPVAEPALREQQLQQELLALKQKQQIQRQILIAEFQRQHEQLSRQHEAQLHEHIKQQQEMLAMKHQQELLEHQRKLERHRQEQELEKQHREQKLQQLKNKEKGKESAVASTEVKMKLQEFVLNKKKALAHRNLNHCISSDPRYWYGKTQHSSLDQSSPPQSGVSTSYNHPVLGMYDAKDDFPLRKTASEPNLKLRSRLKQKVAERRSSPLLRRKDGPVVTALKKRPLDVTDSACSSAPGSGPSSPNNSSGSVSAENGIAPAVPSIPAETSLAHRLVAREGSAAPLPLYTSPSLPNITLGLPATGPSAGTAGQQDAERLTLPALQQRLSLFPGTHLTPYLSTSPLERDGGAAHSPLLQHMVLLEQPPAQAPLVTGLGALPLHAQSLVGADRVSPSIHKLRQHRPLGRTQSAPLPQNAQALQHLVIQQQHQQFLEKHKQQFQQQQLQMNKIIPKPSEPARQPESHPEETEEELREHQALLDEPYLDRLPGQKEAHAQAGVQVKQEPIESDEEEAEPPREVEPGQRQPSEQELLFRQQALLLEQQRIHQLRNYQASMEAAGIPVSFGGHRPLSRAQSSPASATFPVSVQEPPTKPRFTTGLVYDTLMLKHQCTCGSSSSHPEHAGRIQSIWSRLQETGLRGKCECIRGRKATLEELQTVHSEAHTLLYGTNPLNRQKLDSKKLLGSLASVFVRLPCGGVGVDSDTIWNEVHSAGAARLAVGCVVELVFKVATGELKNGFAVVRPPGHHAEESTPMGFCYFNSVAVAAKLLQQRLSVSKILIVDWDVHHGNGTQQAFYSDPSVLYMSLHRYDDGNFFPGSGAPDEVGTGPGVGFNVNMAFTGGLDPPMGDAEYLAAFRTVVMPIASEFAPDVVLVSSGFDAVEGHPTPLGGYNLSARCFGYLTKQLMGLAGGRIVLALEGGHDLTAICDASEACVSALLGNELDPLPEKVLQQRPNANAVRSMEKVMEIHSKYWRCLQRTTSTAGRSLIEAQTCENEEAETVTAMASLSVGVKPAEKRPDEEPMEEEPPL
# [19] = biological target: Histone deacetylase 2 (Homo sapiens, UniProt Q92769); test: Inhibition of human recombinant HDAC2 using Ac-Leu-Gly-Lys(Ac)-AMC as substrate preincubated with enzyme for 30 mins followed by substrate addition and measured after 90 mins by fluorescence based analysis
# Histone deacetylase 2, sequence (Q92769 whole entry): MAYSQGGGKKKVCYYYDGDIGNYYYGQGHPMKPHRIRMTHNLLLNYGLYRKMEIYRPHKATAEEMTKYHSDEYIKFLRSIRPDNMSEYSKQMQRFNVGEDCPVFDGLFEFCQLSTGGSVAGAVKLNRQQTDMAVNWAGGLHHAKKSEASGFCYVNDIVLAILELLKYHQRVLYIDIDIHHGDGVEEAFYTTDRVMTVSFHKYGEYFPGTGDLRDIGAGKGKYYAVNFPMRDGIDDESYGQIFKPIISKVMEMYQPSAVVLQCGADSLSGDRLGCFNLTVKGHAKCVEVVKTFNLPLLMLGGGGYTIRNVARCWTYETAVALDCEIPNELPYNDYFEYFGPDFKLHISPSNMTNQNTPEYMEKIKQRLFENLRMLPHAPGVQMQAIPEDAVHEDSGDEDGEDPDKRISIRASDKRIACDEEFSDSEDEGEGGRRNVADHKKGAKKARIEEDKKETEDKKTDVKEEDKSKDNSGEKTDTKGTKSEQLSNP
# [20] = system: Caco-2; test: Antiproliferative activity against human Caco-2 cells assessed as inhibition of cell growth incubated for 72 hrs by MTT assay; type: functional, cell-based; details: Caco-2, 72 h
inhibition [1],IC50 [5] [µM],IC50 [6] [µM],IC50 [7] [µM],IC50 [9] [µM],inhibition [10],IC50 [12] [µM],inhibition [14],IC50 [18] [µM],IC50 [19] [µM],IC50 [20] [µM],SMILES,Activity [2],IC50 [3] [µM],Activity [4],Activity [8],Activity [11],Activity [13],Activity [15],Activity [16],Activity [17]
inactive,0.259,6,> 10,> 10,Active,0.139,Active,> 100,–,–,Cl.Cl.Nc1ccccc1NC(=O)c1ccc(COc2ccc(CNC(=O)[C@H]3CCCN3)cc2)cc1,Active,3.1,Active,Active,Active,Active,Non-Toxic,Active,Active
–,0.1,6.8,> 100,> 10,–,0.361,–,> 100,0.116,1.9,Nc1ccccc1NC(=O)c1ccc(COc2ccc(CNC(=O)[C@@H]3CCC(=O)N3Cc3ccccc3)cc2)cc1,Active,4.8,Active,Active,Active,Active,Non-Toxic,Active,Active
